Tests used:
Test in all cases: relative viability (nuclei count vs DMSO), 5 days (fraction); higher = more cells survive
[1] = tested on: NCI-H460
How it was run: (§1)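 Medians of duplicate plates are given as relative viability. That measure is the nuclei count in treated wells divided by the count in vehicle wells. Counts were taken on 4× images of lung cancer cell lines in 1536-well plates, 5 days after pin-tool dosing the day after seeding with one drug alone or a fixed anchor-drug dose plus five library-drug doses (not always all listed) in √10 steps.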

[2] = tested on: NCI-H1915
How it was run: as §1

[3] = tested on: NCI-H1792
How it was run: as §1

[4] = tested on: SW 1573
How it was run: as §1

[5] = tested on: HOP-62
How it was run: as §1

[6] = tested on: HCC-827
How it was run: as §1

[7] = tested on: LCLC-103H
How it was run: as §1

[8] = tested on: NCI-H727
How it was run: as §1

[9] = tested on: NCI-H1437
How it was run: as §1

[10] = tested on: HCC-366
How it was run: as §1

[11] = tested on: NCI-H1975
How it was run: as §1

[12] = tested on: NCI-H522
How it was run: as §1

[13] = tested on: HARA
How it was run: as §1

[14] = tested on: CAL-12T
How it was run: as §1

[15] = tested on: COR-L 105
How it was run: as §1

[16] = tested on: NCI-H1395
How it was run: as §1

[17] = tested on: NCI-H2009
How it was run: as §1

[18] = tested on: SK-LU-1
How it was run: as §1

[19] = tested on: A-427
How it was run: as §1

[20] = tested on: EMC-BAC-2
How it was run: as §1

[21] = tested on: NCI-H1755
How it was run: as §1

[22] = tested on: NCI-H2228
How it was run: as §1

[23] = tested on: NCI-H1355
How it was run: as §1

[24] = tested on: NCI-H23
How it was run: as §1

Compound: Clc1ccc(Nc2nnc(Cc3ccncc3)c3ccccc23)cc1 [Vatalanib] + Cc1nc(Nc2ncc(C(=O)Nc3c(C)cccc3Cl)s2)cc(N2CCN(CCO)CC2)n1 [Dasatinib] (partner 0.075 µM)
- relative viability ([1]; first compound 0.04 µM): 0.558
- relative viability ([1]; first compound 0.1265 µM): 0.498
- relative viability ([1]; first compound 0.4 µM): 0.54
- relative viability ([1]; first compound 1.265 µM): 0.351
- relative viability ([1]; first compound 4 µM): 0.409
- relative viability ([2]; first compound 0.04 µM): 0.322
- relative viability ([2]; first compound 0.1265 µM): 0.321
- relative viability ([2]; first compound 0.4 µM): 0.339
- relative viability ([2]; first compound 1.265 µM): 0.279
- relative viability ([2]; first compound 4 µM): 0.349
- relative viability ([3]; first compound 0.04 µM): 0.724
- relative viability ([3]; first compound 0.1265 µM): 0.814
- relative viability ([3]; first compound 0.4 µM): 0.758
- relative viability ([3]; first compound 1.265 µM): 0.811
- relative viability ([3]; first compound 4 µM): 0.759
- relative viability ([4]; first compound 0.04 µM): 0.73
- relative viability ([4]; first compound 0.1265 µM): 0.496
- relative viability ([4]; first compound 0.4 µM): 0.645
- relative viability ([4]; first compound 1.265 µM): 0.395
- relative viability ([4]; first compound 4 µM): 0.476
- relative viability ([5]; first compound 0.04 µM): 0.786
- relative viability ([5]; first compound 0.1265 µM): 0.563
- relative viability ([5]; first compound 0.4 µM): 0.712
- relative viability ([5]; first compound 1.265 µM): 0.635
- relative viability ([5]; first compound 4 µM): 0.602
- relative viability ([6]; first compound 0.04 µM): 0.375
- relative viability ([6]; first compound 0.1265 µM): 0.31
- relative viability ([6]; first compound 0.4 µM): 0.166
- relative viability ([6]; first compound 1.265 µM): 0.326
- relative viability ([6]; first compound 4 µM): 0.275
- relative viability ([7]; first compound 0.04 µM): 0.428
- relative viability ([7]; first compound 0.1265 µM): 0.462
- relative viability ([7]; first compound 0.4 µM): 0.543
- relative viability ([7]; first compound 1.265 µM): 0.484
- relative viability ([7]; first compound 4 µM): 0.396
- relative viability ([8]; first compound 0.04 µM): 0.339
- relative viability ([8]; first compound 0.1265 µM): 0.37
- relative viability ([8]; first compound 0.4 µM): 0.326
- relative viability ([8]; first compound 1.265 µM): 0.41
- relative viability ([8]; first compound 4 µM): 0.425
- relative viability ([9]; first compound 0.04 µM): 0.399
- relative viability ([9]; first compound 0.1265 µM): 0.41
- relative viability ([9]; first compound 0.4 µM): 0.286
- relative viability ([9]; first compound 1.265 µM): 0.349
- relative viability ([9]; first compound 4 µM): 0.417
- relative viability ([10]; first compound 0.04 µM): 0.829
- relative viability ([10]; first compound 0.1265 µM): 0.573
- relative viability ([10]; first compound 0.4 µM): 0.618
- relative viability ([10]; first compound 1.265 µM): 0.586
- relative viability ([10]; first compound 4 µM): 0.503
- relative viability ([11]; first compound 0.04 µM): 0.356
- relative viability ([11]; first compound 0.1265 µM): 0.344
- relative viability ([11]; first compound 0.4 µM): 0.434
- relative viability ([11]; first compound 1.265 µM): 0.282
- relative viability ([11]; first compound 4 µM): 0.287
- relative viability ([12]; first compound 0.04 µM): 0.843
- relative viability ([12]; first compound 0.1265 µM): 0.857
- relative viability ([12]; first compound 0.4 µM): 0.912
- relative viability ([12]; first compound 1.265 µM): 1.04
- relative viability ([12]; first compound 4 µM): 0.828
- relative viability ([13]; first compound 0.04 µM): 0.265
- relative viability ([13]; first compound 0.1265 µM): 0.214
- relative viability ([13]; first compound 0.4 µM): 0.284
- relative viability ([13]; first compound 1.265 µM): 0.212
- relative viability ([13]; first compound 4 µM): 0.248
- relative viability ([14]; first compound 0.04 µM): 0.526
- relative viability ([14]; first compound 0.1265 µM): 0.351
- relative viability ([14]; first compound 0.4 µM): 0.464
- relative viability ([14]; first compound 1.265 µM): 0.28
- relative viability ([14]; first compound 4 µM): 0.374
- relative viability ([15]; first compound 0.04 µM): 0.294
- relative viability ([15]; first compound 0.1265 µM): 0.32
- relative viability ([15]; first compound 0.4 µM): 0.404
- relative viability ([15]; first compound 1.265 µM): 0.316
- relative viability ([15]; first compound 4 µM): 0.326
- relative viability ([16]; first compound 0.04 µM): 0.456
- relative viability ([16]; first compound 0.1265 µM): 0.392
- relative viability ([16]; first compound 0.4 µM): 0.384
- relative viability ([16]; first compound 1.265 µM): 0.389
- relative viability ([16]; first compound 4 µM): 0.407
- relative viability ([17]; first compound 0.04 µM): 0.288
- relative viability ([17]; first compound 0.1265 µM): 0.256
- relative viability ([17]; first compound 0.4 µM): 0.35
- relative viability ([17]; first compound 1.265 µM): 0.303
- relative viability ([17]; first compound 4 µM): 0.283
- relative viability ([18]; first compound 0.04 µM): 0.182
- relative viability ([18]; first compound 0.1265 µM): 0.188
- relative viability ([18]; first compound 0.4 µM): 0.208
- relative viability ([18]; first compound 1.265 µM): 0.184
- relative viability ([18]; first compound 4 µM): 0.178
- relative viability ([19]; first compound 0.04 µM): 0.784
- relative viability ([19]; first compound 0.1265 µM): 0.642
- relative viability ([19]; first compound 0.4 µM): 0.638
- relative viability ([19]; first compound 1.265 µM): 0.662
- relative viability ([19]; first compound 4 µM): 0.732
- relative viability ([20]; first compound 0.04 µM): 0.329
- relative viability ([20]; first compound 0.1265 µM): 0.31
- relative viability ([20]; first compound 0.4 µM): 0.355
- relative viability ([20]; first compound 1.265 µM): 0.306
- relative viability ([20]; first compound 4 µM): 0.331
- relative viability ([21]; first compound 0.04 µM): 0.496
- relative viability ([21]; first compound 0.1265 µM): 0.418
- relative viability ([21]; first compound 0.4 µM): 0.514
- relative viability ([21]; first compound 1.265 µM): 0.413
- relative viability ([21]; first compound 4 µM): 0.381
- relative viability ([22]; first compound 0.04 µM): 0.494
- relative viability ([22]; first compound 0.1265 µM): 0.483
- relative viability ([22]; first compound 0.4 µM): 0.595
- relative viability ([22]; first compound 1.265 µM): 0.482
- relative viability ([22]; first compound 4 µM): 0.447
- relative viability ([23]; first compound 0.04 µM): 0.75
- relative viability ([23]; first compound 0.1265 µM): 0.728
- relative viability ([23]; first compound 0.4 µM): 0.778
- relative viability ([23]; first compound 1.265 µM): 0.603
- relative viability ([23]; first compound 4 µM): 0.633
- relative viability ([24]; first compound 0.04 µM): 0.792
- relative viability ([24]; first compound 0.1265 µM): 0.73
- relative viability ([24]; first compound 0.4 µM): 0.929
- relative viability ([24]; first compound 1.265 µM): 0.772
- relative viability ([24]; first compound 4 µM): 0.667

— the supplement of paper PMC10307832
